For 80 compounds, viability results are on record in publication PMC12040169 (PLOS Biology, 2025).

The data set in a line: in vitro. Particulars: human, hela cells.
The mark [1] stands for this setting: % viability, bulk resorufin, single well.

SMILES strings stand for the structures.

For `O=[N+]([O-])c1ccc(/C=N/Nc2nnc3c(n2)[nH]c2ccccc23)cc1` [CBK261486], for the setting “% viability”, the viability (in general, a read-out of living cells in per cent, often relative to untreated cells) at 28.5 h, 10 µM was determined as 97.8%. As to `O=C1C=C(c2ccc([N+](=O)[O-])cc2)Nc2nonc2N1` [CBK261487], the viability at 28.5 h, 10 µM (% viability) came to 89.4%. Same read-out and setting: the figure for `Oc1ccc(SCCCCCN2CCCCC2)cc1` [CBK261488] is 92.3%; for `Nc1ccc(S(=O)(=O)c2ccc(-n3c(=O)c4cc5c(=O)n(-c6ccc(S(=O)(=O)c7ccc(N)cc7)cc6)c(=O)c5cc4c3=O)cc2)cc1` [CBK261490] it is 92%. The same measure, in the same setting: to `COc1ccccc1NS(=O)(=O)c1cc(S(=O)(=O)Nc2ccccc2OC)c(C)cc1C` [CBK261493] belongs 92%; to `CN1CCN(CCC(=O)N/N=C/c2cccc(Br)c2)CC1` [CBK261496], 96.6%. Take `CN1CCN(CCC(=O)N/N=C/c2ccccc2O)CC1` [CBK261497]: the viability at 28.5 h, 10 µM (% viability) was found to be 93.1%. On the same count and under the same terms, the figure for `COc1cc(/C=N/NC(=O)CCN2CCN(C)CC2)cc(OC)c1O` [CBK261500] is 100%. With `COc1cc(/C=N\NC(=O)CN2CCN(C)CC2)cc2c1OCO2` [CBK261503], the viability at 28.5 h, 10 µM (% viability) came out at 109%. As for `COc1cc(/C=N/NC(=O)CCN2CCN(C)CC2)cc2c1OCO2` [CBK261504], the viability at 28.5 h, 10 µM (% viability) amounted to 116%. Regarding `COc1ccccc1CC(CC(=O)O)C(=O)O` (centres unmarked) [CBK261508], the viability at 28.5 h, 10 µM (% viability) was 91.6%.

For `O=C(CC(C(=O)O)C1CCCO1)Nc1ccc(Cl)cc1Cl` (centres unmarked) [CBK261509], the viability at 28.5 h, 10 µM (% viability) was found to be 86.2%. Take `NS(=O)(=O)c1ccc(N2N=C(c3ccccc3)CC2c2ccccc2)cc1` (centres unmarked) [CBK261511]: the viability at 28.5 h, 10 µM (% viability) stood at 95.9%. As to `CC1(C)NC(C)(C)C(=N\O)/C(=N\O)C/1=N\O` [CBK261512], the viability at 28.5 h, 10 µM (% viability) was determined as 110%.

With `CC1=[N+]([O-])C2(N)CCc3nonc3C2(O)C1` (centres unmarked) [CBK261513], the viability at 28.5 h, 10 µM (% viability) was determined as 87.9%. Take `CC1(N2CCOCC2)CC2(O)C(=[N+]1[O-])CCc1c2no[n+]1[O-]` (centres unmarked) [CBK261516]: the viability at 28.5 h, 10 µM (% viability) was 90.5%. For `CN(/N=C\c1ccc([N+](=O)[O-])cc1)c1nc(-c2ccccc2)cc(-c2ccccc2)n1` [CBK261517], for the setting “% viability”, the viability at 28.5 h, 10 µM came to 88.9%. `O=[N+]([O-])c1ccccc1CN1CCN(C/C=C/c2ccccc2)CC1` [CBK261518]: the viability at 28.5 h, 10 µM (% viability) was 87.1%. With `CN1CCN(c2c(C(=O)O)cc([N+](=O)[O-])cc2[N+](=O)[O-])CC1` [CBK261519], the viability at 28.5 h, 10 µM (% viability) stood at 100%. Regarding `CC(C)(C)c1cc(CN2CCN(c3ccccn3)CC2)cc(C(C)(C)C)c1O` [CBK261520], the viability at 28.5 h, 10 µM (% viability) came out at 117%. As to `O=C(CN1CCCCC1)NN(Cc1ccccc1)c1ccccc1` [CBK261521G], the viability at 28.5 h, 10 µM (% viability) is 103%. As for `COc1ccc(CN2CCC(O)CC2)c(OC)c1` [CBK261522], the viability at 28.5 h, 10 µM (% viability) came to 95.9%.

Consider `c1ccc(Oc2cccc(CN3CCN(c4ccccn4)CC3)c2)cc1` [CBK261523], for which the viability at 28.5 h, 10 µM (% viability) stood at 102%. Same read-out and setting: the figure for `O=Cc1c(-[n+]2ccc(-c3ccncc3)cc2)nc([O-])n1-c1ccccc1` [CBK261529] is 108%; for `CN1CCCN(Cc2cccc3ccccc23)CC1` [CBK261531] it is 96.4%. For the compound `O=C(O)CCCC(=O)Nc1ccc(C(=O)O)cc1` [CBK261534], the viability at 28.5 h, 10 µM (% viability) came out at 86.5%. Regarding `COc1cc(CN2CCN(c3ccccn3)CC2)ccc1O` [CBK261537], the viability at 28.5 h, 10 µM (% viability) came out at 118%. As for `O=C(O)c1cccc(NC(=O)C2CCCCC2C(=O)O)c1` (centres unmarked) [CBK261538], the viability at 28.5 h, 10 µM (% viability) came out at 96.6%. As for `COc1cc(CN2CCCN(C)CC2)c([N+](=O)[O-])cc1OC` [CBK261539], the viability at 28.5 h, 10 µM (% viability) is 90.2%.

As to `CCN1CCN(Cc2c[nH]c3ccccc23)CC1` [CBK261540], the viability at 28.5 h, 10 µM (% viability) came to 99.4%. The same measure, in the same setting: the figure for `Cc1cccc(NC(=S)NNC(=O)CCC(=O)O)c1` [CBK261542] is 85.1%; for `CC(=O)Nc1ccc(S(=O)(=O)N2CCN(C/C=C/c3ccccc3)CC2)cc1` [CBK261545] it is 114%; for `O=C(O)CCC(=O)NNc1ccccc1[N+](=O)[O-]` [CBK261546] it is 95.7%. Take `O=[N+]([O-])c1cc2c(cc1CN1CCN(Cc3ccccc3)CC1)OCO2` [CBK261548]: the viability at 28.5 h, 10 µM (% viability) turned out to be 94.7%. The same measure, in the same setting: to `CN1CCN(C(=S)SCC(=O)O)CC1` [CBK261549C] belongs 92.8%; to `COc1cc(CN2CCN(C/C=C/c3ccccc3)CC2)c([N+](=O)[O-])cc1OC` [CBK261550], 86.4%. Take `O=C(Nc1ccccc1C(=O)Nc1ccccc1C(=O)O)c1ccccc1` [CBK261551]: the viability at 28.5 h, 10 µM (% viability) came to 91.1%. Take `Cc1ccnc(NS(=O)(=O)c2ccc(NS(C)(=O)=O)cc2)n1` [CBK261552]: the viability at 28.5 h, 10 µM (% viability) amounted to 100%. For the compound `COc1ccc(OC)c(CN2CCCN(C)CC2)c1` [CBK261554], the viability at 28.5 h, 10 µM (% viability) turned out to be 96.1%. Take `O=[N+]([O-])c1ccc(Cl)cc1CN1CCN(c2ccccc2)CC1` [CBK261556]: the viability at 28.5 h, 10 µM under setting [1] is 89.3%. Regarding `CN1CCCN(Cc2ccc([N+](=O)[O-])s2)CC1` [CBK261558], the viability at 28.5 h, 10 µM (% viability) is 94%. The same measure, in the same setting: the figure for `Cc1cc(C)c(NC(=O)C2CCCCN2C23CC4CC(CC(C4)C2)C3)c(C)c1` (centres unmarked) [CBK261559C] is 92.6%; for `CCOC(=O)C1CCCCN1Cc1ccc(OC)c(O)c1` (centres unmarked) [CBK261560] it is 98.3%; for `CCN1CCN(Cc2ccccc2[N+](=O)[O-])CC1` [CBK261561] it is 109%. Consider `Nc1ccc(-c2cc(N)n(-c3ccc(Oc4ccccc4)c(S(=O)(=O)O)c3)n2)cc1` [CBK261563], for which the viability at 28.5 h, 10 µM (% viability) is 96.1%.

For the compound `CN1CCC(N(C)Cc2ccc3c(c2)OCO3)CC1` [CBK261564], the viability at 28.5 h, 10 µM (% viability) came out at 86.8%. Same read-out and setting: to `CN1CCC(N(C)Cc2ccccc2[N+](=O)[O-])CC1` [CBK261565] belongs 93.8%; to `O=C(O)C1CCCCC1C(=O)Nc1cccc2ccccc12` (centres unmarked) [CBK261569], 101%; to `COc1ccc(N2CCN(Cc3cc([N+](=O)[O-])ccc3Cl)CC2)cc1` [CBK261571], 88.9%. The same measure, in the same setting: to `CCOc1cc(CN2CCN(C/C=C/c3ccccc3)CC2)ccc1OC` [CBK261573] belongs 87.2%; to `COc1cc(CN2CCN(Cc3ccccc3)CC2)cc([N+](=O)[O-])c1O` [CBK261574], 99%; to `C/C(=N\NC(N)=S)C(=O)O` [CBK261575], 102%. On to `CN1CCC(N(C)Cc2coc3ccccc3c2=O)CC1` [CBK261578], for which the viability at 28.5 h, 10 µM (% viability) was 103%. `CCN(CC)C(=O)C1CCCN(Cc2cccc(Oc3ccccc3)c2)C1` (centres unmarked) [CBK261581]: the viability at 28.5 h, 10 µM (% viability) came out at 92.6%. For `COc1cc(C2C(C#N)=C(N)OC3=C2C(=O)CC(c2ccccc2)C3)cc(Br)c1O` (centres unmarked) [CBK261587], under “% viability”, the viability at 28.5 h, 10 µM is 87.1%. On the same count and under the same terms, the figure for `O=C(CN1CCCCCC1)N/N=C/c1ccccc1Cl` [CBK261589] is 89.4%. Take `NC(=S)NNC(=O)Nc1ccccc1` [CBK261595]: the viability at 28.5 h, 10 µM (% viability) was determined as 96.6%. As to `CC(=O)Nc1cccc(NC(=O)CCCC(=O)O)c1` [CBK261598], the viability at 28.5 h, 10 µM (% viability) was 97.9%. As for `c1ccc(CCNC2CCCc3c2[nH]c2ccc(C4CCCCC4)cc32)cc1` (centres unmarked) [CBK261602C], the viability at 28.5 h, 10 µM (% viability) amounted to 90.7%.

Consider `O=P(O)(CNCc1ccccc1)CNCc1ccccc1` [CBK261604C], for which the viability at 28.5 h, 10 µM (% viability) was 118%. On to `COC(=O)CCC(=O)NNC(=O)c1cccc(Br)c1` [CBK261606], for which the viability at 28.5 h, 10 µM (% viability) was determined as 107%.

Consider `O=C(COC(=O)c1ccc2c(c1)C(=O)N(c1ccc(Oc3ccccc3)cc1)C2=O)c1ccc(Br)cc1` [CBK261607], for which the viability at 28.5 h, 10 µM (% viability) stood at 105%.

For `O=C(CNC(=O)c1ccccc1)OCC(=O)c1ccc(Cl)c(Cl)c1` [CBK261611], where the note is “% viability”, the viability at 28.5 h, 10 µM came out at 93.9%. Regarding `COc1ccc(/C(C)=N\NC(=O)c2cccc(Br)c2)cc1` [CBK261612], the viability at 28.5 h, 10 µM (% viability) worked out at 100%. Consider `Cc1cc(-c2ccc(/N=C/c3cccc(O)c3O)c(C)c2)ccc1/N=C/c1cccc(O)c1O` [CBK261613], for which the viability at 28.5 h, 10 µM (% viability) is 82.6%.

Turning to `NS(=O)(=O)c1ccc(NC(=O)/C=C/c2cccc([N+](=O)[O-])c2)cc1` [CBK261616], the viability at 28.5 h, 10 µM (% viability) was 99.5%. On to `COc1ccccc1N1C(=O)NC(=O)/C(=C/NCCCO)C1=O` [CBK261618], for which, under setting [1], the viability at 28.5 h, 10 µM amounted to 87.8%. As for `Oc1ccc2ccccc2c1/C=N/c1ccc(-c2cc(-c3ccc(/N=C/c4c(O)ccc5ccccc45)cc3)ncn2)cc1` [CBK261621], under “% viability”, the viability at 28.5 h, 10 µM amounted to 104%.

Regarding `COc1ccc2cc(/C=C(\C#N)c3nc(-c4cc5ccccc5oc4=O)cs3)c(Cl)nc2c1` [CBK261623], the viability at 28.5 h, 10 µM (% viability) was 93.9%. Take `CCN(CC)CCN/C=C1/C(=O)NC(=O)N(Cc2ccccc2)C1=O` [CBK261624]: under setting [1], the viability at 28.5 h, 10 µM was determined as 88.9%.

In the case of `O=C(N/N=C/c1ccc(O)cc1)C(=O)N/N=C/c1ccc(O)cc1` [CBK261625], the viability at 28.5 h, 10 µM (% viability) came out at 88.7%. On to `Oc1ccc(Cl)cc1/C=N/c1ccc(-c2cc(-c3ccc(/N=C/c4cc(Cl)ccc4O)cc3)ncn2)cc1` [CBK261626], for which the viability at 28.5 h, 10 µM (% viability) was 101%.

With `CC1(C)C/C(=N/O)c2cc3c(nc2C1)CC(C)(C)C/C3=N\O` [CBK261629], the viability at 28.5 h, 10 µM (% viability) stood at 106%. Same read-out and setting: to `CCOC(=O)c1ccccc1NC(=O)CCC(=O)O` [CBK261631] belongs 93.5%; to `C/C(=N\Nc1nc(C(=O)O)cs1)c1ccccc1` [CBK261633], 88.7%; to `COc1ccc2cc(/C=C(\C#N)c3nc(-c4cc5c(ccc6ccccc65)oc4=O)cs3)c(Cl)nc2c1` [CBK261636], 94%. Consider `O=C(O)CCC(=O)Nc1ccc(-c2ccc([N+](=O)[O-])cc2)cc1` [CBK261637], for which the viability at 28.5 h, 10 µM (% viability) turned out to be 105%.

On to `O=C(/C=C/c1ccc(N2N=N2)cc1)/C=C/c1ccc(N2N=N2)cc1` [CBK261638], for which the viability at 28.5 h, 10 µM was found to be 105%. Turning to `Oc1ccc(/C=N/N=C/c2ccc(O)c(O)c2)cc1O` [CBK261641], the viability at 28.5 h, 10 µM (% viability) amounted to 95%. Still for that read-out and setting: the figure for `CCOC(=O)c1c(NC(=O)CN2CCCCC2)sc2c1CCCC2O` (centres unmarked) [CBK261644] is 90.5%.
